Values joined by “and” are separate entries in the source; they are usually repeats but may differ in a detail not shown here. Equal entries are not always repeated. Toxic doses and inconclusive results are not listed.

This experiment has as its system P388 leukemia ip, CD2F1 mice, survival T/C. The experiment is described as follows: NCI In Vivo Anticancer Drug Screen. Data for tumor model P388 Leukemia (intraperitoneal) in CD2F1 (CDF1) mice. The conditions noted are these: endpoint: median survival time, higher = longer survival. An outline of the steps: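 Mice carrying the transplanted tumor received test compound or vehicle. Survival was recorded in each group, and the value is the treated-group measurement divided by that of the vehicle-treated control group.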

Setting [1] is: dose: 50.0 mg/kg/injection, schedule: Q01DX005 (ip), vehicle: saline with Tween-80.
[2] abbreviates: dose: 100.0 mg/kg/injection, schedule: Q01DX005 (ip), vehicle: saline with Tween-80.
The mark [3] stands for this setting: dose: 200.0 mg/kg/injection, schedule: Q01DX005 (ip), vehicle: saline with Tween-80.
[4] abbreviates: dose: 50.0 mg/kg/injection, schedule: Q01DX005 (ip), vehicle: Klucel (hydroxypropylcellulose) (HPC).
Setting [5] is: dose: 100.0 mg/kg/injection, schedule: Q01DX005 (ip), vehicle: Klucel (hydroxypropylcellulose) (HPC).
The mark [6] stands for this setting: dose: 200.0 mg/kg/injection, schedule: Q01DX005 (ip), vehicle: Klucel (hydroxypropylcellulose) (HPC).
Where [7] appears, read: dose: 50.0 mg/kg/injection, schedule: Q01DX009 (ip), vehicle: saline with Tween-80.
Where [8] appears, read: dose: 100.0 mg/kg/injection, schedule: Q01DX001 (ip), vehicle: Klucel (hydroxypropylcellulose) (HPC).
Setting [9] is: dose: 200.0 mg/kg/injection, schedule: Q01DX001 (ip), vehicle: Klucel (hydroxypropylcellulose) (HPC).
The mark [10] stands for this setting: dose: 400.0 mg/kg/injection, schedule: Q01DX001 (ip), vehicle: Klucel (hydroxypropylcellulose) (HPC).
Setting [11] is: dose: 100.0 mg/kg/injection, schedule: Q04DX003 (ip), vehicle: saline.
Where [12] appears, read: dose: 200.0 mg/kg/injection, schedule: Q04DX003 (ip), vehicle: saline.

On to `C[n+]1c(-c2cccc(OCCCCCCCCCCOc3cccc(-c4c5cc(N)ccc5c5ccc(N)cc5[n+]4C)c3)c2)c2cc(N)ccc2c2ccc(N)cc21`, for which the T/C runs as follows: (dose: 0.39 mg/kg/injection, schedule: Q01DX005 (ip), vehicle: water) 168 % of control; (dose: 0.78 mg/kg/injection, schedule: Q01DX005 (ip), vehicle: water) 153 % of control and 168 % of control; (dose: 0.78 mg/kg/injection, schedule: Q01DX009 (ip), vehicle: water) 153 % of control; (dose: 1.56 mg/kg/injection, schedule: Q01DX005 (ip), vehicle: water) 174 % of control; (dose: 1.56 mg/kg/injection, schedule: Q01DX009 (ip), vehicle: water) 170 % of control; (dose: 3.0 mg/kg/injection, schedule: Q01DX009 (ip), vehicle: water) 169 % of control. For the same compound, the T/C was 153 % of control (dose: 3.12 mg/kg/injection, schedule: Q01DX009 (ip), vehicle: water) and 122 % of control (dose: 6.25 mg/kg/injection, schedule: Q01DX009 (ip), vehicle: water).
With `NC(=O)c1ccccc1N1CCCCC1`, the T/C by setting is: under setting [1], 99 % of control; under setting [2], 100 % of control; under setting [3], 91 % of control.
Turning to `OC1CN(c2ccccc2)CC1O` (stereo not drawn), the T/C reads like this: under setting [4], 105 % of control; under setting [5], 96 % of control; under setting [6], 97 % of control.
With `CCN1C(=O)C(C)C(=O)N(C)C1=O` (stereo not drawn), the T/C by setting is: (dose: 60.0 mg/kg/injection, schedule: Q01DX005 (ip), vehicle: saline) 110 % of control; (dose: 120.0 mg/kg/injection, schedule: Q01DX005 (ip), vehicle: saline) 100 % of control; (dose: 240.0 mg/kg/injection, schedule: Q01DX005 (ip), vehicle: saline) 100 % of control.
Consider `COc1cccc(/C=N/NC(=S)Nc2cc(C(F)(F)F)cc(C(F)(F)F)c2)c1O`, for which the T/C (dose: 25.0 mg/kg/injection, schedule: Q01DX005 (ip), vehicle: Klucel (hydroxypropylcellulose) (HPC)) is 93 % of control; the T/C under setting [4] is 100 % of control and 93 % of control.
Regarding `CC1=C(c2ccccc2)C2(c3ccccc3)OC(c3ccc([N+](=O)[O-])cc3)=NOC2(C)C1` (stereo not drawn), the T/C was 93 % of control under setting [7]; 93 % of control (dose: 100.0 mg/kg/injection, schedule: Q01DX009 (ip), vehicle: saline with Tween-80); 96 % of control (dose: 200.0 mg/kg/injection, schedule: Q01DX009 (ip), vehicle: saline with Tween-80).
Consider `O=C(OCOC(=O)c1ccccc1)c1ccccc1`, for which the T/C reads like this: (dose: 100.0 mg/kg/injection, schedule: Q01DX009 (ip), vehicle: Klucel (hydroxypropylcellulose) (HPC)) 117 % of control; (dose: 200.0 mg/kg/injection, schedule: Q01DX009 (ip), vehicle: Klucel (hydroxypropylcellulose) (HPC)) 107 % of control; (dose: 400.0 mg/kg/injection, schedule: Q01DX009 (ip), vehicle: Klucel (hydroxypropylcellulose) (HPC)) 109 % of control.
In the case of `O=c1c2sc3ccccc3c2ncn1/N=C/c1ccc(Cl)cc1`, the T/C was 105 % of control under setting [4], 96 % of control under setting [5] and 88 % of control under setting [6].
With `O=C1CCCN1C1CC2c3ccccc3C1c1cccc[n+]12` (stereo not drawn), the T/C (dose: 5.0 mg/kg/injection, schedule: Q01DX009 (ip), vehicle: saline sonified) was 100 % of control; the T/C (dose: 10.0 mg/kg/injection, schedule: Q01DX009 (ip), vehicle: saline sonified) was 100 % of control; the T/C (dose: 20.0 mg/kg/injection, schedule: Q01DX009 (ip), vehicle: saline sonified) is 95 % of control.
On to `COc1cc(OC)c2c(c1)C(=O)[C@]1(C)C3(C)OC(=O)C(c4ccccc43)[C@]21C` (stereo partly drawn), for which the T/C is 102 % of control under setting [8], 100 % of control under setting [9] and 105 % of control under setting [10].
With `CC(=O)c1cc(C)ccc1S(C)=O` (stereo not drawn), the T/C is, setting by setting: (dose: 50.0 mg/kg/injection, schedule: Q01DX005 (ip), vehicle: acetone) 99 % of control; (dose: 100.0 mg/kg/injection, schedule: Q01DX005 (ip), vehicle: acetone) 100 % of control; (dose: 200.0 mg/kg/injection, schedule: Q01DX005 (ip), vehicle: acetone) 100 % of control.
`NC(N)=N/N=C1/c2ccccc2/C(=N/N=C(N)N)C1[N+](=O)[O-]`: the T/C (dose: 25.0 mg/kg/injection, schedule: Q01DX001 (ip), vehicle: Klucel (hydroxypropylcellulose) (HPC)) is 112 % of control; the T/C (dose: 50.0 mg/kg/injection, schedule: Q01DX001 (ip), vehicle: Klucel (hydroxypropylcellulose) (HPC)) is 114 % of control; the T/C under setting [8] is 114 % of control; the T/C under setting [9] is 113 % of control; the T/C under setting [10] is 111 % of control.
On to `C=C(c1ccc(Cl)cc1)c1ccc(OC)c(OC)c1`, for which the T/C is, setting by setting: under setting [1], 94 % of control; under setting [2], 99 % of control; under setting [3], 97 % of control.
Consider `NC1CC2c3ccccc3C1c1ccccc12` (stereo not drawn), for which the T/C reads like this: (dose: 12.5 mg/kg/injection, schedule: Q01DX005 (ip), vehicle: saline with Tween-80) 100 % of control; (dose: 25.0 mg/kg/injection, schedule: Q01DX005 (ip), vehicle: saline with Tween-80) 100 % of control; under setting [1], 100 % of control.
`N#C/C1=C(\C#N)N=Cc2ccccc2NCCNc2ccccc2C=N1`: the T/C is 91 % of control under setting [11]; 98 % of control under setting [12]; 100 % of control (dose: 400.0 mg/kg/injection, schedule: Q04DX003 (ip), vehicle: saline).
On to `CCC[CH2][Sn]([CH2]CCC)([O]C(C)=O)[c]1ccccc1`, for which the T/C is, setting by setting: (dose: 1.56 mg/kg/injection, schedule: Q01DX009 (ip), vehicle: saline) 97 % of control; (dose: 3.12 mg/kg/injection, schedule: Q01DX009 (ip), vehicle: saline) 103 % of control; (dose: 6.25 mg/kg/injection, schedule: Q01DX009 (ip), vehicle: saline) 96 % of control; (dose: 50.0 mg/kg/injection, schedule: Q01DX009 (ip), vehicle: saline) 97 % of control; (dose: 100.0 mg/kg/injection, schedule: Q01DX009 (ip), vehicle: saline) 95 % of control; (dose: 200.0 mg/kg/injection, schedule: Q01DX009 (ip), vehicle: saline) 100 % of control.
Take `CNc1ncnc2c1cnn2C`: the T/C by setting is: under setting [7], 95 % of control; under setting [11], 104 % of control; under setting [12], 109 % of control.
As for `COC(C(=O)C(O)C(C)O)C1CC2C=C3C=C(OC4CC(OC5CC(O)C(OC)C(C)O5)C(OC(C)=O)C(C)O4)C(C)C(=O)C3=C(O)C2=C(O)C1OC1CC(OC2CC(OC3CC(C)(O)C(OC(=O)C(C)C)C(C)O3)C(O)C(C)O2)C(O)C(C)O1` (stereo not drawn), the T/C runs as follows: (dose: 1.0 micrograms/kg/injection, schedule: Q01DX010 (ip), vehicle: saline) 150 % of control; (dose: 4.0 micrograms/kg/injection, schedule: Q01DX010 (ip), vehicle: saline) 165 % of control; (dose: 8.0 micrograms/kg/injection, schedule: Q01DX010 (ip), vehicle: saline) 175 % of control; (dose: 16.0 micrograms/kg/injection, schedule: Q01DX010 (ip), vehicle: saline) 155 % of control.
Take `O=[N+]([O-])c1ccc(N/N=C(\CBr)c2ccccc2)c([N+](=O)[O-])c1`: the T/C by setting is: (dose: 100.0 mg/kg/injection, schedule: Q01DX001 (ip), vehicle: saline with Tween-80) 91 % of control; (dose: 200.0 mg/kg/injection, schedule: Q01DX001 (ip), vehicle: saline with Tween-80) 87 % of control; (dose: 400.0 mg/kg/injection, schedule: Q01DX001 (ip), vehicle: saline with Tween-80) 87 % of control.
Consider `Cc1ccnc(NCCCNc2nccc(C)n2)n1`, for which the T/C is, setting by setting: under setting [4], 102 % of control; under setting [5], 96 % of control; under setting [6], 88 % of control.
Consider `O=c1c2ccccc2n2nc3ccccc3c2n1-c1ccccc1`, for which the T/C (dose: 93.25 mg/kg/injection, schedule: Q04DX002 (ip), vehicle: Klucel (hydroxypropylcellulose) (HPC)) is 104 % of control; the T/C (dose: 186.5 mg/kg/injection, schedule: Q04DX002 (ip), vehicle: Klucel (hydroxypropylcellulose) (HPC)) is 98 % of control; the T/C (dose: 373.0 mg/kg/injection, schedule: Q04DX002 (ip), vehicle: Klucel (hydroxypropylcellulose) (HPC)) is 95 % of control.

The values are drawn from PubChem BioAssay AID330 (DTP/NCI, 2004).
